From publication PMC11868595, “Safety, pharmacokinetics and efficacy of HA121-28 in patients with advanced solid tumors and RET fusion-positive non-small-cell lung cancer: a multicenter, open-label, single-arm phase 1/2 trial” (Signal Transduction and Targeted Therapy, 2025)

Tested on: patients with advanced solid tumors
Assay: Phase 1 trial: adverse events (CTCAE), DLT and MTD
Assay type: in vivo, human
Procedure: The phase 1 trial was a two-part, multicenter, open-label, nonrandomized study to evaluate the safety and preliminary efficacy of HA121-28.
Safety, tolerability, and PK of HA121-28 was assessed in dose-escalation part. The single-patient accelerated titration was carried out at 25 mg and 50 mg; then, the dose escalation proceeded according to a “3 + 3” design in dose range of 100 to 800 mg. Escalation to a higher dose level was considered by the satisfactory review of safety results from the previous lower dose during the first cycle.
The dose-expansion part aims to further access the safety and efficacy of HA121-28 at the selected doses based on data from the dose-escalation part. The RP2D was determined by investigators in view of a thorough review of safety, PK, and efficacy results.
In phase 1 trial, during the dose-escalation part, patients first administered HA121-28 in a single ascending dose under the fasted state, then followed up for seven days. Then, patients received ascending doses of HA121-28 (q.d.) on a 21-day on and 7-day off treatment scheme for a 28-day cycle. For patients deemed beneficial from the treatment by investigators, treatment could remain until disease progression, or they discontinued from the study. In the dose-expansion part of phase 1, as well as phase 2, patients received HA121-28 (q.d.) at the selected doses on a 21-day on and 7-day off treatment scheme until disease progression, or they discontinued from the study.
Treatment-emergent adverse events (TEAEs) were documented during the entire study period. The predefined adverse event of special interest (AESI) was ≥ grade 3 prolonged QT interval. Tumor imaging was performed using contrast-enhanced computed tomography or magnetic resonance imaging at screening, Day 28 of the first cycle, then approximately every eight weeks till the end of the study for phase 1; in phase 2, imaging was scheduled at screening, and every eight weeks during the first 40 weeks, followed by every 12 weeks for the rest of the study period. RECIST 1.1 was used by the independent review committee or investigators for assessment of tumor response. After the original assessment, a repeated assessment was required around four weeks later to confirm a complete or partial response.
The primary endpoints of phase 1 were to investigate the MTD, dose-limiting toxicities, and the incidence and severity of TEAEs. Each TEAE was graded according to the Common Terminology Criteria for Adverse Events (CTCAE, version 5.0) and coded by Medical Dictionary for Regulatory Activities (MedDRA, version 21.0). The secondary endpoints included calculating PK parameters, assessing the ORR and DCR at the recommended dose by investigators as per RECIST 1.1. The exploratory endpoint was PFS.
If grade 2 or higher toxicity related to the study drug occurs in Groups 1 and 2 (as determined by the investigator), dose escalation will proceed using a 3+3 design starting from that dose level. If no DLT is observed at the 800 mg/d dose level after dose escalation, a meeting of investigators will be convened to decide whether to proceed with further dose escalation based on the available PK data, safety, and tolerability information.
5. Definition of DLT and MTD
The following events related to the study drug (including those that are definitely related, highly likely to be related, and possibly related):
(1) Grade 4 hematologic toxicity or grade 3 neutropenia accompanied by a fever of 38.5℃ or higher, or grade 3 thrombocytopenia accompanied by severe bleeding.
(2) Patients who discontinued the medication for more than 7 days due to unresolved toxicity reactions or who discontinued the medication more than twice due to toxicity […]
(3) In the context of supportive treatment, diarrhea of grade 2 lasting more than 7 days, or grade 3 diarrhea lasting more than 3 days.

Structure (SMILES): COc1cc2c(Nc3ccc(Br)cc3F)ncnc2cc1OCCCCN(C)C.Cl.Cl [HA121-28, N-(4-bromo-2-fluorophenyl)-7-(4-(dimethylamino)butoxy)-6-methoxy quinazolin-4-amine dihydrochloride]
- incidence of ≥ grade-3 TEAEs (450 mg/day): 36.7%
- incidence of ≥ grade-3 TEAEs (600 mg/day): 68.8%
- patients with dose-limiting toxicities (800 mg (q.d.), grade-3 decreased appetite, grade-3 prolonged QT interval): two
- Serious TEAE: ALT increased (Phase 1, 300 mg (N=4)): 0 No. (%)
- Serious TEAE: AST increased (Phase 1, 300 mg (N=4)): 0 No. (%)
- Serious TEAE: Abdominal Pain (Phase 1, 300 mg (N=4)): 0 No. (%)
- Serious TEAE: Abdominal distension (Phase 1, 300 mg (N=4)): 0 No. (%)
- Serious TEAE: Acute cholecystitis (Phase 1, 300 mg (N=4)): 0 No. (%)
- Serious TEAE: Acute pancreatitis (Phase 1, 300 mg (N=4)): 0 No. (%)
- Serious TEAE: Anal abscess (Phase 1, 300 mg (N=4)): 0 No. (%)
- Serious TEAE: Any (Phase 1, 300 mg (N=4)): 1 (25.0) No. (%)
- Serious TEAE: Aortic intramural hematoma (Phase 1, 300 mg (N=4)): 1 (25.0) No. (%)
- Serious TEAE: Arrhythmia (Phase 1, 300 mg (N=4)): 0 No. (%)
- Serious TEAE: Blood bilirubin increased (Phase 1, 300 mg (N=4)): 0 No. (%)
- Serious TEAE: Blood creatinine increased (Phase 1, 300 mg (N=4)): 0 No. (%)
- Serious TEAE: COVID-19 (Phase 1, 300 mg (N=4)): 0 No. (%)
- Serious TEAE: Cardiac tamponade (Phase 1, 300 mg (N=4)): 0 No. (%)
- Serious TEAE: Coronary artery atherosclerosis (Phase 1, 300 mg (N=4)): 0 No. (%)
- Serious TEAE: Death (Phase 1, 300 mg (N=4)): 0 No. (%)
- Serious TEAE: Diarrhea (Phase 1, 300 mg (N=4)): 0 No. (%)
- Serious TEAE: Drug eruption (Phase 1, 300 mg (N=4)): 0 No. (%)
- Serious TEAE: Dyspnea (Phase 1, 300 mg (N=4)): 0 No. (%)
- Serious TEAE: Embolism (Phase 1, 300 mg (N=4)): 0 No. (%)
- Serious TEAE: Erythema multiforme (Phase 1, 300 mg (N=4)): 0 No. (%)
- Serious TEAE: Headache (Phase 1, 300 mg (N=4)): 0 No. (%)
- Serious TEAE: Hemoptysis (Phase 1, 300 mg (N=4)): 0 No. (%)
- Serious TEAE: Hydronephrosis (Phase 1, 300 mg (N=4)): 0 No. (%)
- Serious TEAE: Hypertension (Phase 1, 300 mg (N=4)): 0 No. (%)
- Serious TEAE: Hypoalbuminemia (Phase 1, 300 mg (N=4)): 0 No. (%)
- Serious TEAE: Intestinal obstruction (Phase 1, 300 mg (N=4)): 0 No. (%)
- Serious TEAE: Intra-abdominal fluid collection (Phase 1, 300 mg (N=4)): 0 No. (%)
- Serious TEAE: Intracranial tumor hemorrhage (Phase 1, 300 mg (N=4)): 0 No. (%)
- Serious TEAE: Liver injury (Phase 1, 300 mg (N=4)): 0 No. (%)
- Serious TEAE: Lung adenocarcinoma (Phase 1, 300 mg (N=4)): 0 No. (%)
- Serious TEAE: Malignant neoplasm progression (Phase 1, 300 mg (N=4)): 0 No. (%)
- Serious TEAE: Multiple organ dysfunction syndrome (Phase 1, 300 mg (N=4)): 0 No. (%)
- Serious TEAE: Nausea (Phase 1, 300 mg (N=4)): 0 No. (%)
- Serious TEAE: Nephrolithiasis (Phase 1, 300 mg (N=4)): 0 No. (%)
- Serious TEAE: Platelet counts decreased (Phase 1, 300 mg (N=4)): 0 No. (%)
- Serious TEAE: Pleural effusion (Phase 1, 300 mg (N=4)): 0 No. (%)
- Serious TEAE: Pneumonia (Phase 1, 300 mg (N=4)): 0 No. (%)
- Serious TEAE: Pneumonitis (Phase 1, 300 mg (N=4)): 0 No. (%)
- Serious TEAE: Prolonged QT interval (Phase 1, 300 mg (N=4)): 0 No. (%)
- Serious TEAE: Pulmonary embolism (Phase 1, 300 mg (N=4)): 0 No. (%)
- Serious TEAE: Pyrexia (Phase 1, 300 mg (N=4)): 0 No. (%)
- Serious TEAE: Rash (Phase 1, 300 mg (N=4)): 0 No. (%)
- Serious TEAE: Rectal hemorrhage (Phase 1, 300 mg (N=4)): 0 No. (%)
- Serious TEAE: Respiratory failure (Phase 1, 300 mg (N=4)): 0 No. (%)
- Serious TEAE: Seizure (Phase 1, 300 mg (N=4)): 0 No. (%)
- Serious TEAE: Septic shock (Phase 1, 300 mg (N=4)): 0 No. (%)
- Serious TEAE: Sudden cardiac arrest (Phase 1, 300 mg (N=4)): 0 No. (%)
- Serious TEAE: Sudden death (Phase 1, 300 mg (N=4)): 0 No. (%)
- Serious TEAE: Upper respiratory tract infection (Phase 1, 300 mg (N=4)): 0 No. (%)
- Serious TEAE: Ventricular tachycardia (Phase 1, 300 mg (N=4)): 0 No. (%)
- Serious TEAE: Vomiting (Phase 1, 300 mg (N=4)): 0 No. (%)
- Serious TEAE: Weight loss (Phase 1, 300 mg (N=4)): 0 No. (%)
- Serious TRAE: ALT increased (Phase 1, 300 mg (N=4)): 0 No. (%)
- Serious TRAE: AST increased (Phase 1, 300 mg (N=4)): 0 No. (%)
- Serious TRAE: Abdominal Pain (Phase 1, 300 mg (N=4)): 0 No. (%)
- Serious TRAE: Abdominal distension (Phase 1, 300 mg (N=4)): 0 No. (%)
- Serious TRAE: Acute cholecystitis (Phase 1, 300 mg (N=4)): 0 No. (%)
- Serious TRAE: Acute pancreatitis (Phase 1, 300 mg (N=4)): 0 No. (%)
- Serious TRAE: Anal abscess (Phase 1, 300 mg (N=4)): 0 No. (%)
- Serious TRAE: Any (Phase 1, 300 mg (N=4)): 0 No. (%)
- Serious TRAE: Aortic intramural hematoma (Phase 1, 300 mg (N=4)): 0 No. (%)
- Serious TRAE: Arrhythmia (Phase 1, 300 mg (N=4)): 0 No. (%)
- Serious TRAE: Blood bilirubin increased (Phase 1, 300 mg (N=4)): 0 No. (%)
- Serious TRAE: Blood creatinine increased (Phase 1, 300 mg (N=4)): 0 No. (%)
- Serious TRAE: COVID-19 (Phase 1, 300 mg (N=4)): 0 No. (%)
- Serious TRAE: Cardiac tamponade (Phase 1, 300 mg (N=4)): 0 No. (%)
- Serious TRAE: Coronary artery atherosclerosis (Phase 1, 300 mg (N=4)): 0 No. (%)
- Serious TRAE: Death (Phase 1, 300 mg (N=4)): 0 No. (%)
- Serious TRAE: Diarrhea (Phase 1, 300 mg (N=4)): 0 No. (%)
- Serious TRAE: Drug eruption (Phase 1, 300 mg (N=4)): 0 No. (%)
- Serious TRAE: Dyspnea (Phase 1, 300 mg (N=4)): 0 No. (%)
- Serious TRAE: Embolism (Phase 1, 300 mg (N=4)): 0 No. (%)
- Serious TRAE: Erythema multiforme (Phase 1, 300 mg (N=4)): 0 No. (%)
- Serious TRAE: Headache (Phase 1, 300 mg (N=4)): 0 No. (%)
- Serious TRAE: Hemoptysis (Phase 1, 300 mg (N=4)): 0 No. (%)
- Serious TRAE: Hydronephrosis (Phase 1, 300 mg (N=4)): 0 No. (%)
- Serious TRAE: Hypertension (Phase 1, 300 mg (N=4)): 0 No. (%)
- Serious TRAE: Hypoalbuminemia (Phase 1, 300 mg (N=4)): 0 No. (%)
- Serious TRAE: Intestinal obstruction (Phase 1, 300 mg (N=4)): 0 No. (%)
- Serious TRAE: Intra-abdominal fluid collection (Phase 1, 300 mg (N=4)): 0 No. (%)
- Serious TRAE: Intracranial tumor hemorrhage (Phase 1, 300 mg (N=4)): 0 No. (%)
- Serious TRAE: Liver injury (Phase 1, 300 mg (N=4)): 0 No. (%)
- Serious TRAE: Lung adenocarcinoma (Phase 1, 300 mg (N=4)): 0 No. (%)
- Serious TRAE: Malignant neoplasm progression (Phase 1, 300 mg (N=4)): 0 No. (%)
- Serious TRAE: Multiple organ dysfunction syndrome (Phase 1, 300 mg (N=4)): 0 No. (%)
- Serious TRAE: Nausea (Phase 1, 300 mg (N=4)): 0 No. (%)
- Serious TRAE: Nephrolithiasis (Phase 1, 300 mg (N=4)): 0 No. (%)
- Serious TRAE: Platelet counts decreased (Phase 1, 300 mg (N=4)): 0 No. (%)
- Serious TRAE: Pleural effusion (Phase 1, 300 mg (N=4)): 0 No. (%)
- Serious TRAE: Pneumonia (Phase 1, 300 mg (N=4)): 0 No. (%)
- Serious TRAE: Pneumonitis (Phase 1, 300 mg (N=4)): 0 No. (%)
- Serious TRAE: Prolonged QT interval (Phase 1, 300 mg (N=4)): 0 No. (%)
- Serious TRAE: Pulmonary embolism (Phase 1, 300 mg (N=4)): 0 No. (%)
- Serious TRAE: Pyrexia (Phase 1, 300 mg (N=4)): 0 No. (%)
- Serious TRAE: Rash (Phase 1, 300 mg (N=4)): 0 No. (%)
- Serious TRAE: Rectal hemorrhage (Phase 1, 300 mg (N=4)): 0 No. (%)
- Serious TRAE: Respiratory failure (Phase 1, 300 mg (N=4)): 0 No. (%)
- Serious TRAE: Seizure (Phase 1, 300 mg (N=4)): 0 No. (%)
- Serious TRAE: Septic shock (Phase 1, 300 mg (N=4)): 0 No. (%)
- Serious TRAE: Sudden cardiac arrest (Phase 1, 300 mg (N=4)): 0 No. (%)
- Serious TRAE: Sudden death (Phase 1, 300 mg (N=4)): 0 No. (%)
- Serious TRAE: Upper respiratory tract infection (Phase 1, 300 mg (N=4)): 0 No. (%)
- Serious TRAE: Ventricular tachycardia (Phase 1, 300 mg (N=4)): 0 No. (%)
- Serious TRAE: Vomiting (Phase 1, 300 mg (N=4)): 0 No. (%)
- Serious TRAE: Weight loss (Phase 1, 300 mg (N=4)): 0 No. (%)
- Serious TEAE: ALT increased (Phase 1, 450 mg (N=79)): 0 No. (%)
- Serious TEAE: AST increased (Phase 1, 450 mg (N=79)): 0 No. (%)
- Serious TEAE: Abdominal Pain (Phase 1, 450 mg (N=79)): 0 No. (%)
- Serious TEAE: Abdominal distension (Phase 1, 450 mg (N=79)): 0 No. (%)
- Serious TEAE: Acute cholecystitis (Phase 1, 450 mg (N=79)): 1 (1.3) No. (%)
